One experiment concerns the target T1, human GLP-1R (Homo sapiens, UniProt P43220).
T1 construct: expressed in transfected cells; crude membranes
Briefly: [125I]-GLP-1 binding, SPA with WGA beads, 0.1% bacitracin. The settings on record: geometric mean, read-out: hGLP1R Ki. A digest of the protocol: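 Binding buffer was 25 mM HEPES pH 7.4 with 2.5 mM CaCl2, 1 mM MgCl2, 0.1% (w/v) bacitracin, 0.003% Tween-20 and EDTA-free protease inhibitors. Four-parameter regression gave IC50, converted to Ki (geometric mean, SEM, n independent days).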

The target in experiment [1] is T2, human glucagon receptor (GcgR) (Homo sapiens, UniProt P47871).
T2 construct: expressed in transfected cells; host or cells: HEK293
Briefly: cAMP functional assay (HTRF) in HEK293 cells in presence of 0.1% casein. The format is cell-based. The settings on record: HEK293 cells expressing human GcgR, geometric mean, read-out: hGcgR cAMP Rel EC50 nM (SEM, n). (Time-resolved FRET reads energy transfer from a long-lived donor to a nearby acceptor.)

pKi: −log10 of the molar value. *1 amine or outer side, *2 acyl side, *3 side chain or, on linkers, in order; H or OH if unused. Where a SMILES comes first, the peptide text is derived from it. Side-chain parts run from the residue outwards. [ ]: non-standard residue; d: D form. The star is where a group is joined. C20 diacid = O=C(O)CCCCCCCCCCCCCCCCCCC(=O)*; γGlu = O=C(O)[C@H](CCC(=O)[*:2])N[*:1]; αMeL = CC(C)C[C@](C)(N)C(=O)O; AEEA = NCCOCCOCC(=O)O; Aib = CC(C)(N)C(=O)O Where only a bound is given, the exact number is not on record here.

These results are taken from US12723063B2, “GIPR-agonist compounds” (Eli Lilly and Company, priority 2019, dated 2026).

The pKi is the Ki on a negative log10 scale, so that one unit is a factor of ten. As usually defined, the EC50 is the concentration needed to bring the measured effect to its halfway point.

T2 sequence (P47871 26-477): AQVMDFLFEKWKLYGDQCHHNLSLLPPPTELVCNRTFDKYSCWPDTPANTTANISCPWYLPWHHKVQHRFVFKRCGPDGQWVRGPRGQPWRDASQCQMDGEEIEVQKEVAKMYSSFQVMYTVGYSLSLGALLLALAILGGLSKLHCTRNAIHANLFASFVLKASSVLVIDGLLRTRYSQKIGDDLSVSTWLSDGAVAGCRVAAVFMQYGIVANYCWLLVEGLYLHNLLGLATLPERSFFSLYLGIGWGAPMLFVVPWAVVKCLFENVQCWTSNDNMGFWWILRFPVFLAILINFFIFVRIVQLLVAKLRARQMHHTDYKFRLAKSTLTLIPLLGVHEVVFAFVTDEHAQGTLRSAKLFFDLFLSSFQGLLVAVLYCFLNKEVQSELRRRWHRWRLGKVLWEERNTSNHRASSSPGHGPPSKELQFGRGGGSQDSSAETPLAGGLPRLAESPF
T1 sequence (P43220 24-463): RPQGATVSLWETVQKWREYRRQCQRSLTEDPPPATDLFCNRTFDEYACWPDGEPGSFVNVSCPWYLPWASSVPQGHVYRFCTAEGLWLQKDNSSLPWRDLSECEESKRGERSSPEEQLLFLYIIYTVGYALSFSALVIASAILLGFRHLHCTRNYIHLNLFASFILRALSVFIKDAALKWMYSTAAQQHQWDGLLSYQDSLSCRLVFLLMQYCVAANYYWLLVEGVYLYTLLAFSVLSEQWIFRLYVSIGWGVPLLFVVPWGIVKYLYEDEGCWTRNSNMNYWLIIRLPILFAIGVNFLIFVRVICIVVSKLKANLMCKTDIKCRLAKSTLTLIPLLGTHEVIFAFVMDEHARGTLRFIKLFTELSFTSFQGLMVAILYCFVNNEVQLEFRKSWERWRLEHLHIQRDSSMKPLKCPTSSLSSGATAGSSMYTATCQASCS

With `CC[C@H](C)[C@H](NC(=O)[C@H](Cc1ccccc1)NC(=O)[C@@H](NC(=O)CNC(=O)[C@H](CCC(=O)O)NC(=O)C(C)(C)NC(=O)[C@@H](N)Cc1ccc(O)cc1)[C@@H](C)O)C(=O)N[C@@H](CO)C(=O)N[C@@H](CC(=O)O)C(=O)N[C@@H](Cc1ccc(O)cc1)C(=O)N[C@@H](CO)C(=O)N[C@H](C(=O)N[C@@](C)(CC(C)C)C(=O)N[C@@H](CC(C)C)C(=O)N[C@@H](CC(=O)O)C(=O)N[C@@H](CCCCN)C(=O)N[C@@H](CCCCNC(=O)COCCOCCNC(=O)COCCOCCNC(=O)CC[C@H](NC(=O)CCCCCCCCCCCCCCCCCCC(=O)O)C(=O)O)C(=O)N[C@@H](Cc1c[nH]cn1)C(=O)N[C@@H](CCC(N)=O)C(=O)NC(C)(C)C(=O)N[C@@H](CC(=O)O)C(=O)N[C@@H](Cc1ccccc1)C(=O)N[C@H](C(=O)N[C@@H](CCC(=O)O)C(=O)N[C@@H](Cc1c[nH]c2ccccc12)C(=O)N[C@@H](CC(C)C)C(=O)N[C@@H](CC(C)C)C(=O)N[C@@H](CCC(=O)O)C(=O)N[C@H](C(=O)NCC(=O)N1CCC[C@H]1C(=O)N[C@@H](CO)C(=O)N[C@@H](CO)C(=O)NCC(=O)N[C@@H](C)C(=O)N1CCC[C@H]1C(=O)N1CCC[C@H]1C(=O)N1CCC[C@H]1C(=O)N[C@@H](CO)C(N)=O)[C@@H](C)O)C(C)C)[C@@H](C)CC` [Example 71] (H-Y[Aib]EGTFISDYSI[αMeL]LDKK([AEEA-AEEA-γGlu-C20 diacid])HQ[Aib]DFVEWLLETGPSSGAPPPS-NH2), at human GLP-1R, the pKi is 6.46. Besides, the EC50 in experiment [1] came out at 581 nM.
Take `CC[C@H](C)[C@H](NC(=O)[C@H](CC(C)C)NC(=O)[C@@H](NC(=O)CNC(=O)[C@H](CCC(=O)O)NC(=O)C(C)(C)NC(=O)[C@@H](N)Cc1ccc(O)cc1)[C@@H](C)O)C(=O)N[C@@H](CO)C(=O)N[C@@H](CC(=O)O)C(=O)N[C@@H](Cc1ccc(O)cc1)C(=O)N[C@@H](CO)C(=O)N[C@H](C(=O)N[C@@](C)(CC(C)C)C(=O)N[C@@H](CC(C)C)C(=O)N[C@@H](CC(=O)O)C(=O)N[C@@H](CCCCN)C(=O)N[C@@H](CCCCNC(=O)COCCOCCNC(=O)COCCOCCNC(=O)CC[C@H](NC(=O)CCCCCCCCCCCCCCCCCCC(=O)O)C(=O)O)C(=O)N[C@@H](Cc1c[nH]cn1)C(=O)N[C@@H](CCC(N)=O)C(=O)NC(C)(C)C(=O)N[C@@H](CCC(=O)O)C(=O)N[C@@H](Cc1ccccc1)C(=O)N[C@H](C(=O)N[C@@H](CCC(=O)O)C(=O)N[C@@H](Cc1ccc(O)cc1)C(=O)N[C@@H](CC(C)C)C(=O)N[C@@H](CC(C)C)C(=O)N[C@@H](CCC(=O)O)C(=O)N[C@H](C(=O)NCC(=O)N1CCC[C@H]1C(=O)N[C@@H](CO)C(=O)N[C@@H](CO)C(=O)NCC(=O)N[C@@H](C)C(=O)N1CCC[C@H]1C(=O)N1CCC[C@H]1C(=O)N1CCC[C@H]1C(=O)N[C@@H](CO)C(N)=O)[C@@H](C)O)C(C)C)[C@@H](C)CC` [Example 72] (H-Y[Aib]EGTLISDYSI[αMeL]LDKK([AEEA-AEEA-γGlu-C20 diacid])HQ[Aib]EFVEYLLETGPSSGAPPPS-NH2): at human GLP-1R, the pKi is 6.36. For the same molecule, in experiment [1], the EC50 was > 5000 nM.
